Measurements as given in US20240384350A1, “METHODS OF TREATING CANCER WITH KINASE INHIBITORS” (BOARD OF REGENTS, THE UNIVERSITY OF TEXAS SYSTEM, priority 2021, published 2024).

What was measured:
Assay in all cases: Ba/F3 drug screening, Cell Titer Glo, IC50 Mut/WT
Assay type in all cases: cell-based
EGFR T790M = target: T1, EGFR T790M (Homo sapiens, UniProt P00533, T790M); settings: T790M-like-3S, 72 hours
T1 construct: expressed in transfected cells; host or cells: Ba/F3

EGFR L833V = target: T2, EGFR L833V (Homo sapiens, UniProt P00533, L833V); settings: Classical-Like, 72 hours
T2 construct: expressed in transfected cells; host or cells: Ba/F3 cells, retroviral pBabe-Puro vector

EGFR L858R L718Q = target: T3, EGFR L858R L718Q (Homo sapiens, UniProt P00533, L718Q/L858R); settings: Ba/F3 cells, EGFR L858R L718Q (PACC), Mut/WT
T3 construct: host or cells: Ba/F3
Experimental: (§1) Data represent the ratio of the IC50 value for a given TKI for cells with a PACC EGFR mutation to the IC50 value for cells with wildtype EGFR.
(§2) Ba/F3 cell generation, drug screening, and IC50 approximations. Ba/F3 cells were obtained as a gift from Dr. Gordon Mills (MD Anderson Cancer Center), and maintained in RPMI (Sigma) containing 10% FBS, 1% penicillin/streptomycin, and 10 ng/ml recombinant mIL-3 (R&D Biosystems). To establish stable Ba/F3 cell lines, Ba/F3 cells were transduced with retroviruses containing mutant EGFR plasmids for 12-24 hours.
(§3) After 48-72 hours of transduction, 2 μg/ml puromycin (Invitrogen) was added to Ba/F3 cell lines in complete RPMI. To select for EGFR positive cell lines, cells were stained with PE-EGFR (Biolegend) and sorted by FACS. After sorting, EGFR positive cells were maintained in RPMI containing 10% FBS, 1% penicillin/streptomycin, and 1 ng/ml EGF to support cell viability. Drug screening was performed as previously described^41,42. Shortly, cells were plated in 384-well plates (Greiner Bio-One) at 2000-3000 cells per well in technical triplicate. Seven different concentrations of TKIs or DMSO vehicle were added to reach a final volume of 40 μL per well. After 72 hours, 11 μL of Cell Titer Glo (Promega) was added to each well. Plates were incubated for a minimum of 10 minutes, and bioluminescence was determined using a FLUOstar OPTIMA plate reader (BMG LABTECH). Raw bioluminescence values were normalized to DMSO control treated cells, and values were plotted in GraphPad Prism. […] Drug screens were performed in technical triplicate on each plate and either duplicate or triplicate biological replicates.

EGFR L861R = target: T4, EGFR L861R (Homo sapiens, UniProt P00533, L861R); settings: Classical-Like, 72 hours
T4 construct: expressed in transfected cells; host or cells: Ba/F3 cells, retroviral pBabe-Puro vector (vector made by GeneScript from EGFR WT)

EGFR E709K G719S = target: T5, EGFR E709K G719S (Homo sapiens, UniProt P00533, E709K/G719S); settings: Ba/F3 cells, EGFR E709K G719S (PACC), Mut/WT
T5 construct: expressed in transfected cells; host or cells: Ba/F3
Experimental: as §1, §2, §3

EGFR A767insASV = target: T6, EGFR A767insASV (Homo sapiens, UniProt P00533, DUP767-769); settings: Ex20, 72 hours
T6 construct: expressed in transfected cells; host or cells: Ba/F3 cells, retroviral pBabe-Puro vector

EGFR L858R G724S = target: T7, EGFR L858R G724S (Homo sapiens, UniProt P00533, G724S/L858R); settings: Ba/F3 cells, EGFR L858R G724S (PACC), Mut/WT
T7 construct: expressed in transfected cells; host or cells: Ba/F3 (retroviral transduction, pBabe-Puro based vectors)
Experimental: as §1, §2, §3

EGFR E709_T710del insD = target: T8, EGFR E709_T710del insD (Homo sapiens, UniProt P00533, DEL709-709/T710D); settings: Ba/F3 cells, EGFR E709_T710del insD (PACC), Mut/WT
T8 construct: expressed in transfected cells; host or cells: Ba/F3

EGFR G724S T790M = target: T9, EGFR G724S T790M (Homo sapiens, UniProt P00533, G724S/T790M); settings: T790M-like-3R, 72 hours
T9 construct: expressed in transfected cells; host or cells: Ba/F3
Experimental: Data represent the ratio of the IC50 value for a given TKI for cells with a T790M-like-3R EGFR mutation to the IC50 value for cells with wildtype EGFR.
as §2
After 48-72 hours of transduction, 2 μg/ml puromycin (Invitrogen) was added to Ba/F3 cell lines in complete RPMI. To select for EGFR positive cell lines, cells were stained with PE-EGFR (Biolegend) and sorted by FACS. After sorting, EGFR positive cells were maintained in RPMI containing 10% FBS, 1% penicillin/streptomycin, and 1 ng/ml EGF to support cell viability. […] Shortly, cells were plated in 384-well plates (Greiner Bio-One) at 2000-3000 cells per well in technical triplicate. Seven different concentrations of TKIs or DMSO vehicle were added to reach a final volume of 40 μL per well. After 72 hours, 11 μL of Cell Titer Glo (Promega) was added to each well. Plates were incubated for a minimum of 10 minutes, and bioluminescence was determined using a FLUOstar OPTIMA plate reader (BMG LABTECH). Raw bioluminescence values were normalized to DMSO control treated cells, and values were plotted in GraphPad Prism. […] Drug screens were performed in technical triplicate on each plate and either duplicate or triplicate biological replicates. […] Statistical differences between groups were determined by ANOVA as described in the figure legends.

EGFR A763insFQEA = target: T10, EGFR A763insFQEA (Homo sapiens, UniProt P00533, INS763FQEA); settings: Classical-Like, 72 hours
T10 construct: expressed in transfected cells; host or cells: Ba/F3 cells, retroviral pBabe-Puro vector

EGFR S811F = target: T11, EGFR S811F (Homo sapiens, UniProt P00533, S811F); settings: Classical-Like, 72 hours
T11 construct: expressed in transfected cells; host or cells: Ba/F3 cells, retroviral pBabe-Puro vector (vector made by GeneScript from EGFR WT)

EGFR Ex19del L718Q = target: T12, EGFR Ex19del L718Q (Homo sapiens, UniProt P00533, DEL746-750/L718Q); settings: Ba/F3 cells, EGFR Ex19del L718Q (PACC), Mut/WT
T12 construct: expressed in transfected cells; host or cells: Ba/F3

EGFR G719A L861Q = target: T13, EGFR G719A L861Q (Homo sapiens, UniProt P00533, G719A/L861Q); settings: Ba/F3 cells, EGFR G719A L861Q (PACC), Mut/WT
T13 construct: expressed in transfected cells; host or cells: Ba/F3
Experimental: as §1, §2, §3

EGFR L858R T790M L718V = target: T14, EGFR L858R T790M L718V (Homo sapiens, UniProt P00533, L718V/L858R/T790M); settings: T790M-like-3R, 72 hours
T14 construct: expressed in transfected cells; host or cells: Ba/F3

EGFR Ex19del/C797S = target: T15, EGFR Ex19del/C797S (Homo sapiens, UniProt P00533, C797S/DEL746-750); settings: Ba/F3 cells, EGFR Ex19del/C797S (PACC), Mut/WT
T15 construct: expressed in transfected cells; host or cells: Ba/F3
Experimental: as §1, §2, §3

EGFR R776C = target: T16, EGFR R776C (Homo sapiens, UniProt P00533, R776C); settings: Ba/F3 cells, EGFR R776C (PACC), Mut/WT
T16 construct: host or cells: Ba/F3
Experimental: as §1, §2, §3

EGFR L858R/T790M/L718Q = target: T17, EGFR L858R/T790M/L718Q (Homo sapiens, UniProt P00533, L718Q/L858R/T790M); settings: T790M-like-3R, 72 hours
T17 construct: expressed in transfected cells; host or cells: Ba/F3

EGFR N771dupN = target: T18, EGFR N771dupN (Homo sapiens, UniProt P00533, DUP771-771); settings: Ex20, 72 hours
T18 construct: expressed in transfected cells; host or cells: Ba/F3 cells, retroviral pBabe-Puro vector

EGFR L858R T790M L792H = target: T19, EGFR L858R T790M L792H (Homo sapiens, UniProt P00533, L792H/L858R/T790M); settings: T790M-like-3S, 72 hours
T19 construct: expressed in transfected cells; host or cells: Ba/F3

EGFR G719A = target: T20, EGFR G719A (Homo sapiens, UniProt P00533, G719A); settings: Ba/F3 cells, EGFR G719A (PACC), Mut/WT
T20 construct: expressed in transfected cells; host or cells: Ba/F3
Experimental: as §1, §2, §3

EGFR S768I/T790M = target: T21, EGFR S768I/T790M (Homo sapiens, UniProt P00533, S768I/T790M); settings: T790M-like-3S, 72 hours
T21 construct: expressed in transfected cells; host or cells: Ba/F3

EGFR L718Q = target: T22, EGFR L718Q (Homo sapiens, UniProt P00533, L718Q); settings: Ba/F3 cells, EGFR L718Q (PACC), Mut/WT
T22 construct: expressed in transfected cells; host or cells: Ba/F3
Experimental: as §1, §2, §3

EGFR L858R/T790M = target: T23, EGFR L858R/T790M (Homo sapiens, UniProt P00533, L858R/T790M); settings: T790M-like-3S, 72 hours
T23 construct: expressed in transfected cells; host or cells: Ba/F3
Experimental: (§4) Data represent the ratio of the IC50 value for a given TKI for cells with a T790M-like-3S EGFR mutation to the IC50 value for cells with wildtype EGFR.
as §2, §3

EGFR L718V = target: T24, EGFR L718V (Homo sapiens, UniProt P00533, L718V); settings: Ba/F3 cells, EGFR L718V (PACC), Mut/WT
T24 construct: expressed in transfected cells; host or cells: Ba/F3

EGFR A763insLQEA = target: T25, EGFR A763insLQEA (Homo sapiens, UniProt P00533, INS763LQEA); settings: Classical-Like, 72 hours
T25 construct: expressed in transfected cells; host or cells: Ba/F3 cells, retroviral pBabe-Puro vector
Experimental: Data represent the ratio of the IC50 value for a given TKI for cells with a classical-like EGFR mutation to the IC50 value for cells with wildtype EGFR.
as §2
After 48-72 hours of transduction, 2 μg/ml puromycin (Invitrogen) was added to Ba/F3 cell lines in complete RPMI. To select for EGFR positive cell lines, cells were stained with PE-EGFR (Biolegend) and sorted by FACS. After sorting, EGFR positive cells were maintained in RPMI containing 10% FBS, 1% penicillin/streptomycin, and 1 ng/ml EGF to support cell viability. […] Shortly, cells were plated in 384-well plates (Greiner Bio-One) at 2000-3000 cells per well in technical triplicate. Seven different concentrations of TKIs or DMSO vehicle were added to reach a final volume of 40 μL per well. After 72 hours, 11 μL of Cell Titer Glo (Promega) was added to each well. Plates were incubated for a minimum of 10 minutes, and bioluminescence was determined using a FLUOstar OPTIMA plate reader (BMG LABTECH). Raw bioluminescence values were normalized to DMSO control treated cells, and values were plotted in GraphPad Prism. […] Drug screens were performed in technical triplicate on each plate and either duplicate or triplicate biological replicates.

EGFR Ex19del/T790M/G724S = target: T26, EGFR Ex19del/T790M/G724S (Homo sapiens, UniProt P00533, DEL746-750/G724S/T790M); settings: T790M-like-3S, 72 hours
T26 construct: expressed in transfected cells; host or cells: Ba/F3
Experimental: as §4, §2, §3

SMILES: C=CC(=O)Nc1cc(Nc2ncc(C(=O)OC(C)C)c(-c3cn(C)c4ccccc34)n2)c(OC)cc1N(C)CCN(C)C [TAK-788 (mobocertinib), mobocertinib]
- ratio of IC50 for cells with mutant EGFR to IC50 for cells with wildtype EGFR (Mut/WT) (EGFR T790M): 1.315
- ratio of IC50 for cells with mutant EGFR to IC50 for cells with wildtype EGFR (Mut/WT) (EGFR L833V): 0.1367
- ratio of the IC50 value for cells with a PACC EGFR mutation to the IC50 value for cells with wildtype EGFR (EGFR L858R L718Q): 2.996
- ratio of IC50 for cells with mutant EGFR to IC50 for cells with wildtype EGFR (Mut/WT) (EGFR L861R): 0.3102
- ratio of the IC50 value for cells with a PACC EGFR mutation to the IC50 value for cells with wildtype EGFR (EGFR E709K G719S): 2.046
- ratio of IC50 for cells with mutant EGFR to IC50 for cells with wildtype EGFR (Mut/WT) (EGFR A767insASV): 1.553
- ratio of the IC50 value for cells with a PACC EGFR mutation to the IC50 value for cells with wildtype EGFR (EGFR L858R G724S): 0.01089
- ratio of the IC50 value for cells with a PACC EGFR mutation to the IC50 value for cells with wildtype EGFR (EGFR E709_T710del insD): 0.0198
- ratio of IC50 for cells with mutant EGFR to IC50 for cells with wildtype EGFR (Mut/WT) (EGFR G724S T790M): 48.31
- ratio of IC50 for cells with mutant EGFR to IC50 for cells with wildtype EGFR (Mut/WT) (EGFR A763insFQEA): 0.473
- ratio of IC50 for cells with mutant EGFR to IC50 for cells with wildtype EGFR (Mut/WT) (EGFR S811F): 0.003195
- ratio of the IC50 value for cells with a PACC EGFR mutation to the IC50 value for cells with wildtype EGFR (EGFR Ex19del L718Q): 1.286
- ratio of the IC50 value for cells with a PACC EGFR mutation to the IC50 value for cells with wildtype EGFR (EGFR G719A L861Q): 1.066
- ratio of IC50 for cells with mutant EGFR to IC50 for cells with wildtype EGFR (Mut/WT) (EGFR L858R T790M L718V): 5.796
- ratio of the IC50 value for cells with a PACC EGFR mutation to the IC50 value for cells with wildtype EGFR (EGFR Ex19del/C797S): 43.27
- ratio of the IC50 value for cells with a PACC EGFR mutation to the IC50 value for cells with wildtype EGFR (EGFR R776C): 0.04235
- ratio of IC50 for cells with mutant EGFR to IC50 for cells with wildtype EGFR (Mut/WT) (EGFR L858R/T790M/L718Q): 149.2
- ratio of IC50 for cells with mutant EGFR to IC50 for cells with wildtype EGFR (Mut/WT) (EGFR N771dupN): 0.8508
- ratio of IC50 for cells with mutant EGFR to IC50 for cells with wildtype EGFR (Mut/WT) (EGFR L858R T790M L792H): 3.326
- ratio of the IC50 value for cells with a PACC EGFR mutation to the IC50 value for cells with wildtype EGFR (EGFR G719A): 1.676
- ratio of IC50 for cells with mutant EGFR to IC50 for cells with wildtype EGFR (Mut/WT) (EGFR S768I/T790M): 10.82
- ratio of the IC50 value for cells with a PACC EGFR mutation to the IC50 value for cells with wildtype EGFR (EGFR L718Q): 16.38
- ratio of IC50 for cells with mutant EGFR to IC50 for cells with wildtype EGFR (Mut/WT) (EGFR L858R/T790M): 0.7565
- ratio of the IC50 value for cells with a PACC EGFR mutation to the IC50 value for cells with wildtype EGFR (EGFR L718V): 39.29
- ratio of IC50 for cells with mutant EGFR to IC50 for cells with wildtype EGFR (Mut/WT) (EGFR A763insLQEA): 0.03374
- ratio of IC50 for cells with mutant EGFR to IC50 for cells with wildtype EGFR (Mut/WT) (EGFR Ex19del/T790M/G724S): 3.12
